Structures are written as SMILES. Read-outs that look alike come from different tables or passages of the source. Where only a bound is given, the exact number is not on record here.

The subject of one series is type 2 diabetic patients. Particulars: Sels et al. (Netherland J.Med. 44 (1994), 198); cited from earlier work.
The target of series [1] is T1, α-1,6-glucosidase (Homo sapiens, UniProt P35573). The series is described as follows: activity of the glycogen debranching enzyme, α-1,6-glucosidase. It is filed as biochemical. Particulars: read-out: 1,6-glucosidase, concentration resulting in half maximal activity (I.C.50). On the procedure:
The activity of the glycogen debranching enzyme, α-1,6-glucosidase, was determined as described by Brown and Brown (1966; in : Meth. in Enzymology, 8, 515-524, Neufeld and Ginsburg (Eds.) Academic Press).

In another series the test system is Rat hepatocytes. The series is described as follows: baseline and glucagon stimulated glucose production from cultured liver cells. It is filed as cell-based. Particulars: for Glucose production without glucagon: relative to the basal glucose production (no addition 100%); for Glucose production without glucagon / Glucose production with glucagon (0.5 nM): 70 minutes; for Glucose production with glucagon (0.5 nM): relative to the basal glucose production (no addition 233%); for inhibition of hepatocyte glucose production (in words): basal and glucagon stimulated. On the procedure:
During the last 24 hours, the hepatocytes were cultured in the presence of high levels of insulin (5 nM) and glucose (15 mM), which result in the incorporation of glucose into glycogen. Therefore, at the time of the experiment, the cells mimic livers from fed animals. Experiments were initiated after 48 hours of culture by 2 times wash of cells and addition of a 20 mM HEPES experimental buffer including balanced salts, but without glucose. The test compound was added simultaneously with the experimental buffer. To some cultures, glucagon (0.5 nM) was added after 10 minutes in order to stimulate glucose production from liver cells. The glucose released into the media, reflecting the glucose production of the liver cells, was measured 70 minutes after the start of the experiment and standardized to cellular DNA content.

A further series has as its target T2, Phosphorylase (Rattus norvegicus, UniProt P09811).
T2 sequence (P09811 2-850): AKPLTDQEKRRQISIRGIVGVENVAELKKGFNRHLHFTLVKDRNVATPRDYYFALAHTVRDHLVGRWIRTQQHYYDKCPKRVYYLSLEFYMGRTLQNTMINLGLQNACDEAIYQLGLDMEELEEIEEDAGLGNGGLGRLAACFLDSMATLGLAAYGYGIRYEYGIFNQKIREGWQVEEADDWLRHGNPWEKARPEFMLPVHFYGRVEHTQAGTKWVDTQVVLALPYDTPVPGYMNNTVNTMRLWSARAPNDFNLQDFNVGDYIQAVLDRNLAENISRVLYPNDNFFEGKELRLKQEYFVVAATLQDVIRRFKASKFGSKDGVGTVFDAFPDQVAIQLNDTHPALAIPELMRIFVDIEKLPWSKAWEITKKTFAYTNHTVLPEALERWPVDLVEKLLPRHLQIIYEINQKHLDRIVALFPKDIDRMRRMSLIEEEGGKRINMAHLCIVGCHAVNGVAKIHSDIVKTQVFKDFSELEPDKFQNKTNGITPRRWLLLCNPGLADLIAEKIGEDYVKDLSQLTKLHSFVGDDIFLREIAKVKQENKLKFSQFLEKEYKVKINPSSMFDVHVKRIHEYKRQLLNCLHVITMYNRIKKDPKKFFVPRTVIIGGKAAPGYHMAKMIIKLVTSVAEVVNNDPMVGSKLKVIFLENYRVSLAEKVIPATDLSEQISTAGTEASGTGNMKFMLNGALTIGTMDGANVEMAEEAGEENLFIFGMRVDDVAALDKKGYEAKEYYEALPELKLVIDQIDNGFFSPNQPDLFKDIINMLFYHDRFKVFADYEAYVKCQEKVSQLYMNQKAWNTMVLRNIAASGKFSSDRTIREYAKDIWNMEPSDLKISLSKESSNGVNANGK
The series can be described thus: activity of phosphorylase. It is filed as biochemical. The settings on record: read-out: Phosphorlyase, concentration resulting in half maximal activity (I.C.50). As for the experimental part: Phosphorylase was either purchased from Sigma or extracted from rat livers according to Stalmans et. al. (Eur.J.Biochem. 49 (1974), 415). The activity of phosphorylase was determined as described by Bergmeyer (1983; in: Meth. of Enzymatic Analysis, 2, 293-295, Weinheim, (ed.) Verlag Chemie).

For a further series, the system named is female ob/OB mice. The series is described as follows: glucagon mediated increase in blood glucose in mice. It is filed as in vivo. The settings on record: for Delta plasma glucose: glucagon s.c., female ob/OB mice fasted 3 hours, averages ± S.D., N = 5, control 6.3 ± 1.0; for reduction of blood glucose (in words): glucagon mediated increase in blood glucose in mice, Table 1. On the procedure:
For in vivo studies, female ob/OB mice (20 g) fasted for 3 hours were used. Test compounds or NaCl (0.9%; controls) were administered intraveneously (hereinafter designated i.v.). Glucagon were administered subcutaneously (herein-after designated s.c.) in order to increase hepatic glucose output derived from glycogen. Blood samples were drawn from the orbital vain and analyzed for glucose using a glucose oxidase method.

Series [2] concerns the target T1, α-1,6-glucosidase. The settings on record: From: Fleet et al. (Tetrahedron 20 (1986), 5685); read-out: 1,6-glucosidase, concentration resulting in half maximal activity (I.C.50); cited from earlier work.

T1 sequence (P35573 whole entry): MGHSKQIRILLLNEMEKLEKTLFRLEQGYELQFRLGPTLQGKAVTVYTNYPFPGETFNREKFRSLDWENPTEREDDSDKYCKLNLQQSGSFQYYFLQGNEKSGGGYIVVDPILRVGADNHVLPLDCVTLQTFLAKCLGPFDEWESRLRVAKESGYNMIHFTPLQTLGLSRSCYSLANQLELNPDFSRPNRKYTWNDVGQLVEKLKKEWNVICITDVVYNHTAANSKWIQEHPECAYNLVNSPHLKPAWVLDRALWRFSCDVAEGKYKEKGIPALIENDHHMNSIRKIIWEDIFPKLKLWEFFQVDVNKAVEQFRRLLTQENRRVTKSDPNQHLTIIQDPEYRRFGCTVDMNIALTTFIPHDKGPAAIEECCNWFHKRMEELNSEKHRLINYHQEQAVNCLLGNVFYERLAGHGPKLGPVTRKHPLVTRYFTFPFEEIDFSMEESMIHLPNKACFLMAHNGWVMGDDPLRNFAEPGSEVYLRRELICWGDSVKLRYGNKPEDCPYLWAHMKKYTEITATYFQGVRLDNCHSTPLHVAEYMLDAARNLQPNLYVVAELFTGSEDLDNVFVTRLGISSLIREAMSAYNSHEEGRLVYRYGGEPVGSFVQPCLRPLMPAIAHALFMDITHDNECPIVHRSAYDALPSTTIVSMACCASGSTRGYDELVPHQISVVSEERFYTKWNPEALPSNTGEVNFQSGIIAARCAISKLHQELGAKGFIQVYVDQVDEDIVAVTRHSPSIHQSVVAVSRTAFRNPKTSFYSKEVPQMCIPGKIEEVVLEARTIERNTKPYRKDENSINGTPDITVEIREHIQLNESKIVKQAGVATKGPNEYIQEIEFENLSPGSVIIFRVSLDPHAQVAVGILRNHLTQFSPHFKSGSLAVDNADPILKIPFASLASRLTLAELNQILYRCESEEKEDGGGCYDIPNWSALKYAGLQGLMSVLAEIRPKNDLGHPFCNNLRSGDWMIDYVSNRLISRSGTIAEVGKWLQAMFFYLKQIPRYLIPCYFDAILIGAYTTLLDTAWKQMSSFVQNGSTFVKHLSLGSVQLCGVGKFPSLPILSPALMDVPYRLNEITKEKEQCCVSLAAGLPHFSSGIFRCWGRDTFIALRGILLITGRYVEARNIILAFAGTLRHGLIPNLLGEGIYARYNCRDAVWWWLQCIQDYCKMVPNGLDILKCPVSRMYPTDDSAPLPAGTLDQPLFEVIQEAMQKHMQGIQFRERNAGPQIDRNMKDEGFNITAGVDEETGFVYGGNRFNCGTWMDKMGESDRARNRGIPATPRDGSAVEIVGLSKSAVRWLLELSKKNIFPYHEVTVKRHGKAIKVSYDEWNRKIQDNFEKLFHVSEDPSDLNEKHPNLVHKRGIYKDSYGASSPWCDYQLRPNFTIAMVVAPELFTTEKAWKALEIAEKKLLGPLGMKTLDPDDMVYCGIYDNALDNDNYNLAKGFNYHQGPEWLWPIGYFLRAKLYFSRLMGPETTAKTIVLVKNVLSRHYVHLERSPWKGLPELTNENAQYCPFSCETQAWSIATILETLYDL

`OCCN1C[C@H](O)[C@@H](O)[C@H](O)[C@H]1CO` [miglitol]: the “fasting plasma glucose after treatment (in words)” value in the series with type 2 diabetic patients was “not reduced”.

Regarding `OC[C@H]1NC[C@H](O)[C@@H](O)[C@@H]1O` [dNOJ, 1-deoxynojirimycin], at α-1,6-glucosidase [1], the IC50 was found to be 1100 nM. Besides, in the series on Rat hepatocytes (50 μM), the “Glucose production without glucagon” value was found to be 92% and the “Glucose production with glucagon (0.5 nM)” value stood at 195%. Also, in the series on Rat hepatocytes, the “inhibition of hepatocyte glucose production (in words)” value is on record as “insufficient to suppress hepatic glucose production”. On Phosphorylase, the IC50 is greater than 200000 nM. In the series with female ob/OB mice (50 mg/kg i.v.), the Delta plasma glucose was found to be 5.7 ± 1.2 mmol/L. Further, in the series with female ob/OB mice, the “reduction of blood glucose (in words)” value was “unable to reduce blood glucose”.

For the molecule `Cl.OC[C@H]1NC[C@@H](O)[C@@H]1O` [Compound 2, (2R,3R,4R)-3,4-Dihydroxy-2-(hydroxymethyl)pyrrolidine, hydrochloride], in the series on Rat hepatocytes (1 μM), the “Glucose production without glucagon” value is 19% and the “Glucose production with glucagon (0.5 nM)” value is listed as 41%. Further, the “inhibition of hepatocyte glucose production (in words)” value in the series with Rat hepatocytes is “inhibit basal and glucagon stimulated hepatocyte glucose production”. In addition, the IC50 on α-1,6-glucosidase [2] was 180 nM. In the series with female ob/OB mice (8 mg/kg i.v.), this molecule yielded a Delta plasma glucose of 0.5 ± 0.6 mmol/L. Moreover, the “reduction of blood glucose (in words)” value in the series with female ob/OB mice is on record as “potent principle for reducing blood glucose”.

These data come from patent US6451836B1, “Method of inhibiting liver glycogen phosphorylase with 2-alkylpyrrolidines” (Novo Nordisk A/S, priority 1995, dated 2002).
